What follows are compounds tested against T1, CYP17 (steroid 17-alpha-hydroxylase/17,20 lyase) (Homo sapiens, UniProt P05093) (assay: in vitro).
T1 sequence (P05093 whole entry): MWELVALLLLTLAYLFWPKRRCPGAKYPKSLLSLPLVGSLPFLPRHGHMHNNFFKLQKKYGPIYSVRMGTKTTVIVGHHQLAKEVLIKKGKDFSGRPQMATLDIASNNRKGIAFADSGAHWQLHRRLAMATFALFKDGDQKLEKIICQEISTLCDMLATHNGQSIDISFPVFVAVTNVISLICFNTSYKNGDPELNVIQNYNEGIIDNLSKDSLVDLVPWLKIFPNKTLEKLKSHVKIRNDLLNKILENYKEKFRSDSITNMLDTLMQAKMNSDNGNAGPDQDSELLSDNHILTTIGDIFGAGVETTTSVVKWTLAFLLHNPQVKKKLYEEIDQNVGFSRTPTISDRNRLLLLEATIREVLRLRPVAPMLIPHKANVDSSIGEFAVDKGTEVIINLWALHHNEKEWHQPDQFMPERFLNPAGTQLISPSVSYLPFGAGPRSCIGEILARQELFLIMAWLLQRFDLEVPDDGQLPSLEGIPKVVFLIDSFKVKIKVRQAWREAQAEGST
Description: Inhibition of human CYP17 expressed in Escherichia coli at 2.5 uM

inhibition at 2.5 µM | SMILES
20% | O=c1c([C@@H](c2ccc([N+](=O)[O-])cc2)n2ccnc2)coc2ccccc12
6% | N#Cc1ccc([C@H](c2coc3ccccc3c2=O)n2ccnc2)cc1
13% | O=c1c([C@H](c2ccc(Br)cc2)n2ccnc2)coc2ccccc12
6% | N#Cc1ccc([C@@H](c2coc3ccccc3c2=O)n2ccnc2)cc1
17% | O=c1c([C@@H](c2ccc(Br)cc2)n2ccnc2)coc2ccccc12
12% | O=c1c([C@H](c2ccc([N+](=O)[O-])cc2)n2ccnc2)coc2ccccc12

Reference: ChEMBL document CHEMBL1139479, “Enantioselective nonsteroidal aromatase inhibitors identified through a multidisciplinary medicinal chemistry approach” (J Med Chem, 2005)
